Data published in ChEMBL document CHEMBL1201862, “PubChem BioAssay data set” (2004).
Where a name gives a salt, the structure may show the parent alone.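 Compound exposure: 48 hours, 5 concentrations, 96-well plates. Here, GI50 denotes the concentration required for 50% inhibition of growth.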 Calls of active or inactive are those of the source. Cut-off read from the data, not from the text of the source: active = GI50 up to about 1.1 µM and inactive = higher.

Key:
Assay in all cases: growth of human tumour cells (NCI), 48 h
DMS-273 = system: DMS-273
HOP-18 = system: HOP-18
DMS-114 = system: DMS-114
M19-MEL = system: M19-MEL
RXF 631 = system: RXF 631
SNB-78 = system: SNB-78
KM-20L2 = system: KM-20L2
LXFL 529 = system: LXFL 529
XF498 = system: XF498

SMILES | GI50 (DMS-273) | GI50 (HOP-18) | GI50 (DMS-114) | GI50 (M19-MEL) | GI50 (RXF 631) | GI50 (SNB-78) | GI50 (KM-20L2) | GI50 (LXFL 529) | GI50 (XF498)
O=C1CCC(=O)C1=NNc1cc(Cl)cc(Cl)c1 | > 100 µM (inactive) | > 100 µM (inactive) | 98.2 µM (inactive) | > 100 µM (inactive) | > 100 µM (inactive) | > 100 µM (inactive) | – | – | –
O=c1[nH]c(C2CCCCC2)nc2c(Cl)cccc12 | > 100 µM (inactive) | > 100 µM (inactive) | > 100 µM (inactive) | > 100 µM (inactive) | – | > 100 µM (inactive) | > 100 µM (inactive) | > 100 µM (inactive) | > 100 µM (inactive)
O=c1[nH]c(=O)n(C2CC(O)C(CO)O2)cc1C(F)(C(F)(F)F)C(F)(F)F (stereo not given) | > 100 µM (inactive) | 84.5 µM (inactive) | > 100 µM (inactive) | > 100 µM (inactive) | – | > 100 µM (inactive) | > 100 µM (inactive) | > 100 µM (inactive) | > 100 µM (inactive)
CCCCN(CC)C(=O)C(=O)Cc1nc2ccc(C(=O)c3ccccc3)cc2nc1O | 53 µM (inactive) | – | 53.7 µM (inactive) | > 100 µM (inactive) | – | 49.5 µM (inactive) | 31.7 µM (inactive) | 47.1 µM (inactive) | –
COC(=O)OCC1OC(N2C(=O)NC(=O)C(I)C2N=[N+]=[N-])CC1OC(=O)OC (stereo not given) | > 100 µM (inactive) | – | – | > 100 µM (inactive) | > 100 µM (inactive) | > 100 µM (inactive) | > 100 µM (inactive) | > 100 µM (inactive) | > 100 µM (inactive)
CN(C)c1ccc(/C=c2\sc3nnc(-c4ccco4)n3c2=O)cc1 | > 100 µM (inactive) | > 100 µM (inactive) | > 100 µM (inactive) | > 100 µM (inactive) | > 100 µM (inactive) | > 100 µM (inactive) | > 100 µM (inactive) | > 100 µM (inactive) | > 100 µM (inactive)
COc1nc(NC2OC(COC(C)=O)C(OC(C)=O)C(OC(C)=O)C2OC(C)=O)c2c(OC(C)=O)c(C)c(=O)oc2n1 (stereo not given) | – | > 100 µM (inactive) | > 100 µM (inactive) | > 100 µM (inactive) | – | > 100 µM (inactive) | > 100 µM (inactive) | > 100 µM (inactive) | > 100 µM (inactive)
OCC(CO)C1c2cccc3ccc4cccc1c4c23 | > 100 µM (inactive) | > 100 µM (inactive) | > 100 µM (inactive) | > 100 µM (inactive) | > 100 µM (inactive) | > 100 µM (inactive) | > 100 µM (inactive) | – | > 100 µM (inactive)
Cn1c(=O)c2[nH]cnc2n(CC(=O)O)c1=O | > 100 µM (inactive) | – | > 100 µM (inactive) | > 100 µM (inactive) | > 100 µM (inactive) | > 100 µM (inactive) | > 100 µM (inactive) | > 100 µM (inactive) | > 100 µM (inactive)
Nc1nc(NCCO)c(N=O)c(=O)[nH]1 | > 100 µM (inactive) | > 100 µM (inactive) | > 100 µM (inactive) | > 100 µM (inactive) | – | > 100 µM (inactive) | > 100 µM (inactive) | > 100 µM (inactive) | > 100 µM (inactive)
COC1CC(OC)C(O)C(CO)O1 (stereo not given) | – | > 100 µM (inactive) | – | > 100 µM (inactive) | – | > 100 µM (inactive) | > 100 µM (inactive) | > 100 µM (inactive) | > 100 µM (inactive)
O=C(Cc1c(C(=O)Nc2ccccc2)sc(C(=O)Nc2ccccc2)c1CC(=O)Nc1ccccc1)Nc1ccccc1 | > 100 µM (inactive) | 68.9 µM (inactive) | > 100 µM (inactive) | > 100 µM (inactive) | – | > 100 µM (inactive) | > 100 µM (inactive) | > 100 µM (inactive) | > 100 µM (inactive)
CC(C)(C)c1cc(C(O)(C(F)(F)F)C(F)(F)F)c2c(c1)C(C(F)(F)F)(C(F)(F)F)OC(C(C)(C)C)N2 (stereo not given) | 2.18 µM (inactive) | 2.55 µM (inactive) | 1.12 µM (inactive) | 2.47 µM (inactive) | 2.15 µM (inactive) | 2.75 µM (inactive) | 2.86 µM (inactive) | 2.82 µM (inactive) | < 0.01 µM (active)
CCOC(=O)c1sc2c(C(=O)OCC)n3cc(C)cc(C)c3c2c1O | > 100 µM (inactive) | – | 37.6 µM (inactive) | > 100 µM (inactive) | – | > 100 µM (inactive) | > 100 µM (inactive) | > 100 µM (inactive) | –
NC(=O)NNC(=O)NC12CC3CC(CC(C3)C1)C2 | > 100 µM (inactive) | > 100 µM (inactive) | > 100 µM (inactive) | > 100 µM (inactive) | – | > 100 µM (inactive) | > 100 µM (inactive) | > 100 µM (inactive) | > 100 µM (inactive)
CCOC(=O)C12CCCC1(O)N(NC(=O)c1ccccc1)C(C)=C2C(=O)OC (stereo not given) | > 100 µM (inactive) | > 100 µM (inactive) | – | > 100 µM (inactive) | – | > 100 µM (inactive) | > 100 µM (inactive) | > 100 µM (inactive) | –
COC(=O)C(=O)C(C(=O)C=C(C)C)C(=O)C(=O)Nc1ccc(C)cc1C (stereo not given) | > 100 µM (inactive) | > 100 µM (inactive) | > 100 µM (inactive) | > 100 µM (inactive) | – | > 100 µM (inactive) | > 100 µM (inactive) | > 100 µM (inactive) | > 100 µM (inactive)
CC(/C=C/C(=O)c1sc(C(N)=S)nc1C)=C\c1ccccc1 | 20 µM (inactive) | > 100 µM (inactive) | 17 µM (inactive) | > 100 µM (inactive) | 40.6 µM (inactive) | > 100 µM (inactive) | 80.2 µM (inactive) | > 100 µM (inactive) | > 100 µM (inactive)
COC(=O)/C=C(\C(=O)OC)c1c2c3c(cc(OC)c(OC)c3c3ccccc13)CCN2C | 22.6 µM (inactive) | 64.9 µM (inactive) | 27.9 µM (inactive) | 33 µM (inactive) | 33.8 µM (inactive) | 37.8 µM (inactive) | 12.6 µM (inactive) | 42.1 µM (inactive) | –
CC1CC[P+](c2ccccc2)(c2ccccc2)CC1 | 68.9 µM (inactive) | > 100 µM (inactive) | 50.1 µM (inactive) | 27.6 µM (inactive) | – | > 100 µM (inactive) | 89.1 µM (inactive) | 31.7 µM (inactive) | 25.1 µM (inactive)
CC(C)(C)/N=N/C(C)(C)N=C=O | > 100 µM (inactive) | > 100 µM (inactive) | > 100 µM (inactive) | > 100 µM (inactive) | – | > 100 µM (inactive) | > 100 µM (inactive) | > 100 µM (inactive) | > 100 µM (inactive)
CC/C(=N\NS(=O)(=O)c1ccccc1)c1ccccc1 | > 100 µM (inactive) | > 100 µM (inactive) | – | > 100 µM (inactive) | > 100 µM (inactive) | > 100 µM (inactive) | > 100 µM (inactive) | > 100 µM (inactive) | > 100 µM (inactive)
COc1ccc2c(c1)C(O)(C(F)(F)F)c1cc(C(=O)C(F)(F)F)c3ccccc3c1N2 (stereo not given) | 11 µM (inactive) | 17.4 µM (inactive) | 10 µM (inactive) | 14.8 µM (inactive) | 13.5 µM (inactive) | – | 3.71 µM (inactive) | 10.3 µM (inactive) | –
Cc1cc(C)nc(NS(=O)(=O)c2ccc(NC(=O)c3ccc(Cl)c4c(Nc5ccc(S(=O)(=O)Nc6nc(C)cc(C)n6)cc5)c5ccccc5nc34)cc2)n1 | 6.34 µM (inactive) | 2.32 µM (inactive) | 2.87 µM (inactive) | 2.91 µM (inactive) | 4.29 µM (inactive) | 3.71 µM (inactive) | 6.43 µM (inactive) | 4.69 µM (inactive) | > 100 µM (inactive)
COc1cc2[nH]c3c(c2cc1OC)CCN[C@]31CC[C@]2(CC3c4c(cc(OC)c(O)c42)CCN3C)C[C@H]1OC (stereo not given in full) | 2 µM (inactive) | 18 µM (inactive) | 17.3 µM (inactive) | 17.9 µM (inactive) | 11.7 µM (inactive) | 29.1 µM (inactive) | 28.1 µM (inactive) | 24.5 µM (inactive) | 15.6 µM (inactive)
O=C1Cc2c([nH]c3ccccc23)-c2cc(Br)ccc2N1 | > 100 µM (inactive) | > 100 µM (inactive) | > 100 µM (inactive) | > 100 µM (inactive) | > 100 µM (inactive) | > 100 µM (inactive) | > 100 µM (inactive) | > 100 µM (inactive) | –
COc1ccc2[nH]c3c(cnn4cnnc34)c2c1 | > 100 µM (inactive) | > 100 µM (inactive) | > 100 µM (inactive) | > 100 µM (inactive) | > 100 µM (inactive) | – | > 100 µM (inactive) | > 100 µM (inactive) | –
COC(=O)C1=CO[C@@H](C)[C@@H]2Cn3ccc4c5ccccc5nc-4c3C[C@H]12 [ALSTONINE HYDROCHLORIDE] | > 100 µM (inactive) | 32.7 µM (inactive) | > 100 µM (inactive) | > 100 µM (inactive) | > 100 µM (inactive) | > 100 µM (inactive) | > 100 µM (inactive) | > 100 µM (inactive) | 49.5 µM (inactive)
COc1ccc(/C=C/c2cc(OC)cc(OC)c2)cc1 [TRISMETHOXYRESVERATROL] | 3.79 µM (inactive) | > 24.3 µM (inactive) | 3.5 µM (inactive) | 6.31 µM (inactive) | 4.2 µM (inactive) | 3.98 µM (inactive) | 3.15 µM (inactive) | 4.86 µM (inactive) | 8.43 µM (inactive)
